Results published in PubChem BioAssay AID248 (DTP/NCI, 2004).
“And” between values parts separate entries of the source, which are not always exact repeats. Equal values may be shown once. Inconclusive results and toxic doses are left out. Cut-off read from the data, not from the text of the source: active = T/C of 150% or more; inactive = T/C below 125%.

Tested on: L1210 leukemia ip in BDF1 mice, survival T/C
Test: NCI In Vivo Anticancer Drug Screen. Data for tumor model L1210 Leukemia (intraperitoneal) in B6D2F1 (BDF1) mice
Conditions: endpoint: mean survival time, higher = longer survival
Method in brief: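 Tumor was transplanted into mice, which were then dosed with test compound or vehicle alone. Survival was recorded for each group, and the treated figure was expressed relative to the control figure.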

[1] = dose: 50.0 mg/kg/injection, schedule: Q01DX001 (ip), vehicle: carboxymethylcellulose (CMC)
[2] = dose: 100.0 mg/kg/injection, schedule: Q01DX001 (ip), vehicle: carboxymethylcellulose (CMC)
[3] = dose: 200.0 mg/kg/injection, schedule: Q01DX001 (ip), vehicle: carboxymethylcellulose (CMC)
[4] = dose: 400.0 mg/kg/injection, schedule: Q01DX001 (ip), vehicle: carboxymethylcellulose (CMC)
[5] = dose: 100.0 mg/kg/injection, schedule: Q01DX001 (ip), vehicle: saline
[6] = dose: 200.0 mg/kg/injection, schedule: Q01DX001 (ip), vehicle: saline
[7] = dose: 50.0 mg/kg/injection, schedule: Q01DX009 (ip), vehicle: saline with Tween-80
[8] = dose: 100.0 mg/kg/injection, schedule: Q01DX009 (ip), vehicle: saline with Tween-80
[9] = dose: 200.0 mg/kg/injection, schedule: Q01DX009 (ip), vehicle: saline with Tween-80
[10] = dose: 100.0 mg/kg/injection, schedule: Q04DX002 (ip), vehicle: Klucel (hydroxypropylcellulose) (HPC)
[11] = dose: 200.0 mg/kg/injection, schedule: Q04DX002 (ip), vehicle: Klucel (hydroxypropylcellulose) (HPC)
[12] = dose: 400.0 mg/kg/injection, schedule: Q04DX002 (ip), vehicle: Klucel (hydroxypropylcellulose) (HPC)
[13] = dose: 400.0 mg/kg/injection, schedule: Q01DX001 (ip), vehicle: saline
[14] = dose: 100.0 mg/kg/injection, schedule: Q01DX009 (ip), vehicle: Klucel (hydroxypropylcellulose) (HPC)
[15] = dose: 100.0 mg/kg/injection, schedule: Q04DX003 (ip), vehicle: Klucel (hydroxypropylcellulose) (HPC)
[16] = dose: 200.0 mg/kg/injection, schedule: Q01DX009 (ip), vehicle: Klucel (hydroxypropylcellulose) (HPC)
[17] = dose: 200.0 mg/kg/injection, schedule: Q04DX003 (ip), vehicle: Klucel (hydroxypropylcellulose) (HPC)

Measured: T/C

CCN1CC(=O)N(C)C1=S
inactive: [1] 103 % of control | [2] 100 % of control | [3] 97 % of control | [4] 118 % of control

CCOC(C(=O)N(C)CCN(C)CCc1ccccc1)(c1ccccc1)c1ccccc1
inactive: [5] 105 % of control | [6] 94 % of control

CC(=O)CC(=O)N(C(=O)CC(C)=O)c1ccccc1C
inactive: [7] 105 % of control | [8] 105 % of control | [9] 94 % of control

CCCCCCCCCCCCCCOS(=O)(=O)O
inactive: dose: 37.5 mg/kg/injection, schedule: Q04DX003 (ip), vehicle: saline 100 % of control | dose: 75.0 mg/kg/injection, schedule: Q01DX001 (ip), vehicle: saline 95 % of control | dose: 75.0 mg/kg/injection, schedule: Q04DX003 (ip), vehicle: saline 94 % of control | dose: 150.0 mg/kg/injection, schedule: Q01DX001 (ip), vehicle: saline 92 % of control | dose: 150.0 mg/kg/injection, schedule: Q04DX003 (ip), vehicle: saline 92 % of control

CC12CC(Br)C(Br)CC1(C)O2 (stereo unspecified)
inactive: dose: 25.0 mg/kg/injection, schedule: Q04DX002 (ip), vehicle: gum acacia 96 % of control | dose: 50.0 mg/kg/injection, schedule: Q04DX002 (ip), vehicle: gum acacia 100 % of control | dose: 100.0 mg/kg/injection, schedule: Q04DX002 (ip), vehicle: gum acacia 104 % of control

CCCC(C)C(O)C(C)C (stereo unspecified)
inactive: [1] 93 % of control | [2] 95 % of control | [3] 95 % of control | [4] 93 % of control

C/C([O-])=C(/c1nc(-c2ccc([N+](=O)[O-])o2)no1)[n+]1cc(C)ccc1C
inactive: [10] 95 % of control | [11] 91 % of control | [12] 87 % of control

O=C(c1ccccc1)c1cc(-c2cc(=O)cc(-c3cc(C(=O)c4ccccc4)c(O)cc3O)o2)c(O)cc1O
inactive: [5] 96 % of control | [6] 105 % of control | [13] 94 % of control

CCCCCCCCSCCCCCCCCCCCSCCCCCCCC
inactive: dose: 100.0 mg/kg/injection, schedule: Q01DX001 (ip), vehicle: Klucel (hydroxypropylcellulose) (HPC) 102 % of control | dose: 200.0 mg/kg/injection, schedule: Q01DX001 (ip), vehicle: Klucel (hydroxypropylcellulose) (HPC) 92 % of control

CC1(C)C=C(C(Br)c2ccc(Cl)cc2)C(=O)c2ccccc21 (stereo unspecified)
inactive: dose: 50.0 mg/kg/injection, schedule: Q01DX009 (ip), vehicle: Klucel (hydroxypropylcellulose) (HPC) 110 % of control | [14] 105 % of control | [15] 95 % of control | [16] 100 % of control | [17] 92 % of control

N#Cc1c(Oc2ccccc2)c(F)c(Oc2ccccc2)c(F)c1Oc1ccccc1
inactive: [8] 100 % of control | [9] 91 % of control | dose: 400.0 mg/kg/injection, schedule: Q01DX009 (ip), vehicle: saline with Tween-80 92 % of control

CS(=O)(=O)OCCN(CCOS(C)(=O)=O)c1ccc(C=Nc2cc(Br)c(O)c(Br)c2)cc1
inactive: dose: 20.0 mg/kg/injection, schedule: Q04DX003 (ip), vehicle: Klucel (hydroxypropylcellulose) (HPC) 120 % of control | dose: 40.0 mg/kg/injection, schedule: Q04DX003 (ip), vehicle: Klucel (hydroxypropylcellulose) (HPC) 104 % of control | dose: 80.0 mg/kg/injection, schedule: Q04DX003 (ip), vehicle: Klucel (hydroxypropylcellulose) (HPC) 96 % of control | [15] 113 % of control

BrC1C2CC3C(C2)C13 (stereo unspecified)
inactive: [14] 104 % of control | [15] 100 % of control | [16] 95 % of control | [17] 95 % of control | dose: 400.0 mg/kg/injection, schedule: Q01DX009 (ip), vehicle: Klucel (hydroxypropylcellulose) (HPC) 98 % of control | dose: 400.0 mg/kg/injection, schedule: Q04DX003 (ip), vehicle: Klucel (hydroxypropylcellulose) (HPC) 93 % of control

Cc1ccc(-n2cnc3c(=O)[nH]cnc32)cc1
inactive: [5] 98 % of control | [6] 93 % of control | [13] 93 % of control

C/C(=N/OC(=O)N(C)C)c1ccc(Cl)c(Cl)c1
inactive: dose: 100.0 mg/kg/injection, schedule: Q01DX001 (ip), vehicle: other 96 % of control | dose: 200.0 mg/kg/injection, schedule: Q01DX001 (ip), vehicle: other 98 % of control

CCCCCCCCCCCCCCCCCCNC(=O)Nc1ccc(SC)cc1
inactive: [10] 101 % of control | [11] 96 % of control | [12] 101 % of control

CC(=O)c1cc(CN(CCCl)CCCl)c(O)c(CN(CCCl)CCCl)c1O
inactive: dose: 3.1 mg/kg/injection, schedule: Q01DX009 (ip), vehicle: Klucel (hydroxypropylcellulose) (HPC) 111 % of control | dose: 5.5 mg/kg/injection, schedule: Q01DX009 (ip), vehicle: Klucel (hydroxypropylcellulose) (HPC) 114 % of control | dose: 6.2 mg/kg/injection, schedule: Q01DX009 (ip), vehicle: Klucel (hydroxypropylcellulose) (HPC) 111 % of control | dose: 8.3 mg/kg/injection, schedule: Q01DX009 (ip), vehicle: Klucel (hydroxypropylcellulose) (HPC) 120 % of control | dose: 15.0 mg/kg/injection, schedule: Q01DX001 (ip), vehicle: carboxymethylcellulose (CMC) 122 % of control | dose: 23.0 mg/kg/injection, schedule: Q01DX001 (ip), vehicle: carboxymethylcellulose (CMC) 122 % of control | dose: 30.0 mg/kg/injection, schedule: Q01DX009 (ip), vehicle: carboxymethylcellulose (CMC) 108 % of control | dose: 53.0 mg/kg/injection, schedule: Q01DX001 (ip), vehicle: carboxymethylcellulose (CMC) 122 % of control

CSc1nnnc2ccccc12
inactive: dose: 37.5 mg/kg/injection, schedule: Q04DX002 (ip), vehicle: saline with Tween-80 113 % of control | dose: 75.0 mg/kg/injection, schedule: Q04DX002 (ip), vehicle: saline with Tween-80 92 % of control

CCCCNC(C)C(=O)c1ccccc1 (stereo unspecified)
inactive: dose: 12.5 mg/kg/injection, schedule: Q04DX003 (ip), vehicle: saline 100 % of control | dose: 25.0 mg/kg/injection, schedule: Q01DX009 (ip), vehicle: saline 101 % of control | dose: 25.0 mg/kg/injection, schedule: Q04DX003 (ip), vehicle: saline 90 % of control | dose: 50.0 mg/kg/injection, schedule: Q01DX009 (ip), vehicle: saline 101 % of control | dose: 50.0 mg/kg/injection, schedule: Q04DX003 (ip), vehicle: saline 100 % of control | dose: 100.0 mg/kg/injection, schedule: Q04DX003 (ip), vehicle: saline 94 % of control

Cc1ccc(Nc2nc(N)nc(N)c2Cl)cc1
inactive: [7] 94 % of control | [8] 91 % of control

O=C(Nc1ccc(Cl)cc1)c1cccc([N+](=O)[O-])c1O
inactive: dose: 6.25 mg/kg/injection, schedule: Q01DX009 (ip), vehicle: Klucel (hydroxypropylcellulose) (HPC) 102 % of control | dose: 12.5 mg/kg/injection, schedule: Q01DX009 (ip), vehicle: Klucel (hydroxypropylcellulose) (HPC) 106 % of control | dose: 25.0 mg/kg/injection, schedule: Q01DX009 (ip), vehicle: Klucel (hydroxypropylcellulose) (HPC) 95 % of control

Nc1nc2c(ncn2C2OC(CO)C(O)C2O)c(=O)[nH]1 (stereo unspecified)
inactive: dose: 5.0 mg/kg/injection, schedule: Q01DX001 (ip), vehicle: saline 102 % of control | dose: 10.0 mg/kg/injection, schedule: Q01DX001 (ip), vehicle: saline 105 % of control | dose: 20.0 mg/kg/injection, schedule: Q01DX001 (ip), vehicle: saline 97 % of control | dose: 40.0 mg/kg/injection, schedule: Q01DX001 (ip), vehicle: saline 103 % of control | dose: 80.0 mg/kg/injection, schedule: Q01DX001 (ip), vehicle: saline 108 % of control | [2] 100 % of control | [5] 101 % of control and 105 % of control | [3] 97 % of control | [6] 101 % of control | [4] 97 % of control
